Measurements taken from ChEMBL document CHEMBL5523717, “Pyrrole-containing hybrids as potential anticancer agents: An insight into current developments and structure-activity relationships” (Eur J Med Chem, 2024).

Tests used:
[1] = Cytotoxicity against human HFL1 cells assessed as cell growth inhibition incubated for 24 hrs by MTT assay; format: toxicity, cell-based
[2] = test system: HCT-15; assay: Growth inhibition of human HCT-15 cells incubated for 72 hrs by SRB assay; format: functional
[3] = test system: HUVEC; assay: Antiproliferative activity against VEGF-stimulated HUVEC assessed as inhibition of cell growth incubated for 3 days by MTT assay; format: functional, cell-based; settings: Homo sapiens, 72 h
[4] = test system: MDA-MB-231; assay: Cytotoxicity against human MDA-MB-231 cells assessed as reduction in cell viability by MTT assay; format: functional, cell-based
[5] = Cytotoxicity against mouse NIH3T3 cells assessed as reduction in cell viability incubated for 24 hrs by MTT assay; format: toxicity, cell-based
[6] = test system: CNE-2; assay: Anticancer activity against human CNE-2 cells assessed as reduction in cell growth; format: functional, cell-based
[7] = test system: SUNE1; assay: Anticancer activity against human SUNE1 cells assessed as reduction in cell growth; format: toxicity, cell-based
[8] = target: T1, Mushroom tyrosinase (Agaricus bisporus, UniProt O42713+Q00024+C7FF04+C7FF05); assay: Inhibition of mushroom Tyrosinase; format: protein assay
[9] = target: Vascular endothelial growth factor receptor 2 (Homo sapiens, UniProt P35968); assay: Inhibition of VEGFR-2 (unknown origin) by ELISA analysis
Vascular endothelial growth factor receptor 2, sequence (P35968 whole entry): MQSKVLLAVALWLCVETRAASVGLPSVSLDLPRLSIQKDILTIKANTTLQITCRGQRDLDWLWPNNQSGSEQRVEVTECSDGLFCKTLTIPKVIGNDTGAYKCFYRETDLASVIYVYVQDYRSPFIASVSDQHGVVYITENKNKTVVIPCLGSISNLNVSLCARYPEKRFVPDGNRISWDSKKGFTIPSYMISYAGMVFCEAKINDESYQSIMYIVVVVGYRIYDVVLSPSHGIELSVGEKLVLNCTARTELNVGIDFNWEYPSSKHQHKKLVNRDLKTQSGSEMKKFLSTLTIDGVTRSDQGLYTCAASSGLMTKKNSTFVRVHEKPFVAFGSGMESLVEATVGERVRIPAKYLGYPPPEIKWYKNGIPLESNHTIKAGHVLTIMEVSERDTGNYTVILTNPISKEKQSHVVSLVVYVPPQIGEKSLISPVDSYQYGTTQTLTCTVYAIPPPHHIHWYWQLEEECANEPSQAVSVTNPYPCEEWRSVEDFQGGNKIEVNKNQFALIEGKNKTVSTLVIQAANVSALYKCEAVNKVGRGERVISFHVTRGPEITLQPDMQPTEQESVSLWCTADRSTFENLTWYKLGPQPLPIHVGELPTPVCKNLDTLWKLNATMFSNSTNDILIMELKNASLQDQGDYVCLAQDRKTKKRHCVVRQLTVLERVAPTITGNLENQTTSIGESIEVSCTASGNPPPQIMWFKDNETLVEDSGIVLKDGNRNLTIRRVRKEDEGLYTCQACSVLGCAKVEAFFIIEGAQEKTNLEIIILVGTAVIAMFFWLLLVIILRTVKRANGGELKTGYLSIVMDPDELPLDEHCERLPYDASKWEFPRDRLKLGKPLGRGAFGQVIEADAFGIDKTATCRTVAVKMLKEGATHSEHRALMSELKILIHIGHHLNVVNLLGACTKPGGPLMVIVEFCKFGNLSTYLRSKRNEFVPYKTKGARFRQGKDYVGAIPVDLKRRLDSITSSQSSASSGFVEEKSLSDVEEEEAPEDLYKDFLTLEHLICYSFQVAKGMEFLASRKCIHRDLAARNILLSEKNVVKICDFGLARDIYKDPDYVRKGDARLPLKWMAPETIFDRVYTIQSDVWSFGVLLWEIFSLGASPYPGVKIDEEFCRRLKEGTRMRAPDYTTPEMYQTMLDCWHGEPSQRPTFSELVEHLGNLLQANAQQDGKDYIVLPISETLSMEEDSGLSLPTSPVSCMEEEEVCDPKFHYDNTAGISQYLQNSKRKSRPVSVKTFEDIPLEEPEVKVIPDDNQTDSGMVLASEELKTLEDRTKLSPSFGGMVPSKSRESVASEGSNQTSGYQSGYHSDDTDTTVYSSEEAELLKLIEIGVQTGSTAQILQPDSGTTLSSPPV

[10] = target: Lysine-specific histone demethylase 1A (Homo sapiens, UniProt O60341); assay: Inhibition of LSD1 (unknown origin)
[11] = test system: A549; assay: Antiproliferative activity against human A549 cells transfected with sh-empty vector assessed as reduction in cell growth incubated for 48 hrs by MTT assay; format: functional, cell-based; settings: A549, 48 h
[12] = test system: K562; assay: Antiproliferative activity against human K562 cells assessed as reduction in cell growth incubated for 48 hrs by MTT assay; format: functional, cell-based; settings: K562, 48 h
[13] = test system: A549; assay: Antiproliferative activity against human A549 cells transfected with sh-EZH2 vector assessed as reduction in cell growth incubated for 48 hrs by MTT assay; format: functional, cell-based; settings: A549, 48 h
[14] = test system: A549; assay: Cytotoxicity against human A549 cells assessed as reduction in cell growth incubated for 24 hrs by MTT assay; format: functional, cell-based; settings: A549, 24 h
[15] = target: Kinesin-like protein KIF11 (Homo sapiens, UniProt P52732); assay: Inhibition of KSP/Eg5 (unknown origin)
Kinesin-like protein KIF11, sequence (P52732 whole entry): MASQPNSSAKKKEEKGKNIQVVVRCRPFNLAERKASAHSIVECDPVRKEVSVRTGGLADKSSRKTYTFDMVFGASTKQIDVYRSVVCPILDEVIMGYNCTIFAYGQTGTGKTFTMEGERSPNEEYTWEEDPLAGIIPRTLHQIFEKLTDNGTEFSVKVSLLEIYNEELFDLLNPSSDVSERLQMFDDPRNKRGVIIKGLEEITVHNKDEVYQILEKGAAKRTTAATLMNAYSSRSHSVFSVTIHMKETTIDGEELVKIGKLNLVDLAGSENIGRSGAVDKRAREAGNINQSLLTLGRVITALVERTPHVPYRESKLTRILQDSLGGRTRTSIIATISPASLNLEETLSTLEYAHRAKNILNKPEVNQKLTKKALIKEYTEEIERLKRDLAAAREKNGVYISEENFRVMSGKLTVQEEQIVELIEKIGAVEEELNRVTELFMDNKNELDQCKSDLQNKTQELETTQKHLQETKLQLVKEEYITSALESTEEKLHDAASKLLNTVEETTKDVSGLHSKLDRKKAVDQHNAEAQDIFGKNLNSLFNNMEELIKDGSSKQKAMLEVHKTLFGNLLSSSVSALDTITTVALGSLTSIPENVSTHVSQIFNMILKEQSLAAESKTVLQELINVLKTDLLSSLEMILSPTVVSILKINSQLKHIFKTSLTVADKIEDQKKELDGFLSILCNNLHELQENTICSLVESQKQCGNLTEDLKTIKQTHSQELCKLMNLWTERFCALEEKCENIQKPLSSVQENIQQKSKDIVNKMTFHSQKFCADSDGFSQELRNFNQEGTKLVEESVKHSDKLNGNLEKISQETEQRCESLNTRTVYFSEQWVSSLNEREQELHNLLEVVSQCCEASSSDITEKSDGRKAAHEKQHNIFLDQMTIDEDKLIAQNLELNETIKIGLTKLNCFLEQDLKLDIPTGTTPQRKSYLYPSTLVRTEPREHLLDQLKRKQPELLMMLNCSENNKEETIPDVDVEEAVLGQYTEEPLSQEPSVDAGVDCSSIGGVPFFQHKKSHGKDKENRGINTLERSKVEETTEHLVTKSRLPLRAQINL

[16] = target: DNA topoisomerase 1 (Homo sapiens, UniProt P11387); assay: Inhibition of DNA topoisomerase I (unknown origin)
DNA topoisomerase 1, sequence (P11387 whole entry): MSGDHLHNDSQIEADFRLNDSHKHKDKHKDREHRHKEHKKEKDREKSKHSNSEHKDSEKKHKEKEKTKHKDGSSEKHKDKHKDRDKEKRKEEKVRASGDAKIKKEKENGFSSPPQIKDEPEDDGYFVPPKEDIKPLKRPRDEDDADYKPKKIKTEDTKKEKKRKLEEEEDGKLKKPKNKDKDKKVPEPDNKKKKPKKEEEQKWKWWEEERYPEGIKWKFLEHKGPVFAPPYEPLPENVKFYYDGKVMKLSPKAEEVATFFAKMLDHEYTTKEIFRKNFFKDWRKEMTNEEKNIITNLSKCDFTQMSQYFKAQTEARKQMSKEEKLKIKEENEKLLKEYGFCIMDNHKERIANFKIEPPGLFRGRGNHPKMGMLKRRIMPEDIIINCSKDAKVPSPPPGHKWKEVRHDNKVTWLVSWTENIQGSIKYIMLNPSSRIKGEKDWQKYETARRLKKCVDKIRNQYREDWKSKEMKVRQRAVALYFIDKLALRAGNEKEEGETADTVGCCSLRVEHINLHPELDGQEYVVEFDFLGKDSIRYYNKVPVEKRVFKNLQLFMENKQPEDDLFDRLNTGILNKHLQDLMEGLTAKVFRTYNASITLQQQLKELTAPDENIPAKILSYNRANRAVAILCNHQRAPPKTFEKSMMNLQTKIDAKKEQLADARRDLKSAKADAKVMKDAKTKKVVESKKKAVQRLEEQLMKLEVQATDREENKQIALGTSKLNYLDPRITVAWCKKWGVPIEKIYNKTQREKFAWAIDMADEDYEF

[17] = test system: MCF7; assay: Cytotoxicity against human MCF7 cells assessed as reduction in cell growth incubated for 24 hrs by MTT assay; format: functional, cell-based; settings: MCF7, 24 h
[18] = test system: MCF-12A; assay: Cytotoxicity against human MCF-12A cells assessed as reduction in cell viability incubated for 24 hrs by MTT assay; format: functional, cell-based
[19] = test system: MKN-45; assay: Antiproliferative activity against human MKN-45 cells assessed as reduction in cell growth incubated for 72 hrs by CCK-8 assay; format: functional, cell-based; settings: MKN-45, 72 h
[20] = target: T2, Hepatocyte growth factor receptor (Homo sapiens, UniProt P08581); assay: Inhibition of human c-Met
T2 sequence (P08581 whole entry): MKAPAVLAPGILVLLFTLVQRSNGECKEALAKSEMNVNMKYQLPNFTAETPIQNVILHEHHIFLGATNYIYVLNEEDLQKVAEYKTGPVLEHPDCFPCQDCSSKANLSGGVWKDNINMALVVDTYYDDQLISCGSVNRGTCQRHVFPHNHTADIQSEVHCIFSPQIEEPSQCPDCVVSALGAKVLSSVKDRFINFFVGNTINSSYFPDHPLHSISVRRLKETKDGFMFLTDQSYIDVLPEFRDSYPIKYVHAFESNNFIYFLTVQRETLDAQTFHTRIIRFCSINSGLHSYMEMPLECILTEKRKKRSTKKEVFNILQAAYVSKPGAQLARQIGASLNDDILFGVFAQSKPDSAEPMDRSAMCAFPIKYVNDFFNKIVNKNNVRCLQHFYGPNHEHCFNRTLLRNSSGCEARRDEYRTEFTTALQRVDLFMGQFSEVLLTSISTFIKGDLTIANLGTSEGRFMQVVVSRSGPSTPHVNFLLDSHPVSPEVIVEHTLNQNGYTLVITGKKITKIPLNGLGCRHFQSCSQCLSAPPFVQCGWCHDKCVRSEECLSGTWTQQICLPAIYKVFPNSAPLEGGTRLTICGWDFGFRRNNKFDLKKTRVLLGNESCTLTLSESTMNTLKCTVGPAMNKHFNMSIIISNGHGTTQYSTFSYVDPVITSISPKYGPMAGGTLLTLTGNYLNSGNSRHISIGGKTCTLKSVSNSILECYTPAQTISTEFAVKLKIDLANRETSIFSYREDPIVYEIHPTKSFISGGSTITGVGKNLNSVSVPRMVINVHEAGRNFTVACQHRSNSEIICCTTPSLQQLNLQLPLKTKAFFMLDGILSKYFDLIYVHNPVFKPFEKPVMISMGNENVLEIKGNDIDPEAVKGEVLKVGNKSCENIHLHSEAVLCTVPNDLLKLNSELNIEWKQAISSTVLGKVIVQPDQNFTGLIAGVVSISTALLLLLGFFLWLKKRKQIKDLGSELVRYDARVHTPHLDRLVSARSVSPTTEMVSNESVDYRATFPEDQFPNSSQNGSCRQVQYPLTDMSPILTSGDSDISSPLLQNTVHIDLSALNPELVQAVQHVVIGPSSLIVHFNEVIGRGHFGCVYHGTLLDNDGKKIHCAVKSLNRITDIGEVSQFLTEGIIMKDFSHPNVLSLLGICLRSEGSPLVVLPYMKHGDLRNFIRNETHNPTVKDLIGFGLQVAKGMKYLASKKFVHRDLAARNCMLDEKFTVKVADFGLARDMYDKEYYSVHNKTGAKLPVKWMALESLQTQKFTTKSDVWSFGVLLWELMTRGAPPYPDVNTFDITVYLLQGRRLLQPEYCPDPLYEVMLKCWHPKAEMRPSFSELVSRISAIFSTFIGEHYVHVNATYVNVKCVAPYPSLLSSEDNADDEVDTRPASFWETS

[21] = target: Poly [ADP-ribose] polymerase 2 (Homo sapiens, UniProt Q9UGN5); assay: Inhibition of PARP-2 (unknown origin)
[22] = target: Poly [ADP-ribose] polymerase 1 (Homo sapiens, UniProt P09874); assay: Inhibition of PARP-1 (unknown origin)
[23] = test system: MCF7; assay: Cytotoxicity against human MCF7 cells assessed as reduction in cell viability incubated for 96 hrs by MTT assay; format: functional
[24] = test system: MDA-MB-436; assay: Cytotoxicity against human MDA-MB-436 cells assessed as reduction in cell viability incubated for 96 hrs by MTT assay; format: functional
[25] = test system: U-251; assay: Anticancer activity against human U-251 cells assessed as reduction in cell growth; format: functional, cell-based
[26] = test system: A549; assay: Anticancer activity against human A549 cells assessed as inhibition of cell growth; format: functional, cell-based
[27] = target: T1, Mushroom tyrosinase; assay: Inhibition of mushroom tyrosinase using L-DOPA as substrate preincubated for 10 mins followed by substrate addition and measured after 15 mins by spectrophotometric method; format: protein assay
[28] = test system: HT-29; assay: Cytotoxicity against human HT-29 cells assessed as reduction in cell growth by MTT assay; format: functional, cell-based
[29] = test system: A2780; assay: Cytotoxicity against human A2780 cells assessed as reduction in cell growth by MTT assay; format: functional, cell-based
[30] = test system: A-431; assay: Cytotoxicity against human A-431 cells assessed as reduction in cell growth by MTT assay; format: functional, cell-based
[31] = test system: DU-145; assay: Cytotoxicity against human DU-145 cells assessed as reduction in cell growth by MTT assay; format: functional, cell-based
[32] = test system: MCF7; assay: Cytotoxicity against human MCF7 cells assessed as reduction in cell growth by MTT assay; format: functional, cell-based
[33] = test system: T47D; assay: Cytotoxicity against human T47D cells assessed as reduction in cell viability by MTT assay; format: functional, cell-based
[34] = test system: A549; assay: Cytotoxicity against human A549 cells assessed as reduction in cell growth incubated for 72 hrs by MTT assay; format: functional, cell-based; settings: A549, 72 h
[35] = target: T2, Hepatocyte growth factor receptor; assay: Inhibition of c-Met (unknown origin) by mobility shift assay
[36] = test system: HepG2; assay: Cytotoxicity against human HepG2 cells assessed as reduction in cell growth incubated for 72 hrs by MTT assay; format: functional, cell-based; settings: HepG2, 72 h
[37] = test system: MCF7; assay: Cytotoxicity against human MCF7 cells assessed as reduction in cell growth incubated for 72 hrs by MTT assay; format: functional, cell-based; settings: MCF7, 72 h
[38] = target: Tyrosinase (Homo sapiens, UniProt P14679); assay: Inhibition of human tyrosinase
Tyrosinase, sequence (P14679 whole entry): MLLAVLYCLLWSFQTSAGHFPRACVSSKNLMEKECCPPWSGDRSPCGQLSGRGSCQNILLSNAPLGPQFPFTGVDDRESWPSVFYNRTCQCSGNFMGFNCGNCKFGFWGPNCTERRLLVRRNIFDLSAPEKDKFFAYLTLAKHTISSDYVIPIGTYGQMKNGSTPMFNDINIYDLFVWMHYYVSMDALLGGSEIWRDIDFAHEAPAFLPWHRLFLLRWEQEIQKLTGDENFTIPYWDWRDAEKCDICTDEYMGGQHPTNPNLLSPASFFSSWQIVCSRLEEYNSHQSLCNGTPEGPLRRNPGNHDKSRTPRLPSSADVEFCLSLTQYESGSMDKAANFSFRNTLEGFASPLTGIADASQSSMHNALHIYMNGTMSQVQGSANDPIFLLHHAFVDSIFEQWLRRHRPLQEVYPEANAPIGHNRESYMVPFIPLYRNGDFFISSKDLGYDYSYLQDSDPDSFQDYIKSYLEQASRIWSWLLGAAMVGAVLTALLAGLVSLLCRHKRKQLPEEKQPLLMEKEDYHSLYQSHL

[39] = test system: K562; assay: Antiproliferative activity against human K562 cells assessed as reduction in cell growth incubated for 48 hrs by WST-8 assay; format: functional, cell-based; settings: K562, 48 h

## COc1ccc(OC)c(-c2nc(/C=C3/C(=O)N(Cc4ccccc4)c4ccc(Br)cc43)cc3c2[nH]c2ccccc23)c1
[1]
  IC50 at 24 h: 49.8 µM
[2]
  GI50: 0.89 µM

## Cc1c(OCC(O)CN2CCN(C)CC2)cn2ncnc(Oc3ccc(NC(=O)C4(C(=O)Nc5ccc(F)cc5)CC4)cc3F)c12 (configuration not stated)
[3]
  IC50: 5 µM

## Cc1c(C(=O)C(=O)Nc2ccncc2)cc(-c2ccccc2)n1-c1ccc(F)cc1
[4]
  IC50: 11.8 µM
[5]
  IC50 at 24 h: > 100 µM

## O=C(N/N=C/c1ccc([N+](=O)[O-])n1Cc1cccc(F)c1)c1cccc(O)c1O
[6]
  IC50: 4.43 µM
[7]
  IC50: 0.08 µM

## COc1cccc2c1c(C(=O)C(=O)Nc1cc[nH]n1)cn2Cc1ccc(F)cc1
[8]
  IC50: 372 µM

## O=C(CN1CCCCC1)Nc1cccc(-c2cc3ccccc3[nH]2)c1
[9]
  IC50: 1.14 µM

## COc1cccc2c1c(C(C)=O)cn2Cc1ccc(F)cc1
[8]
  IC50: 224 µM

## COCc1cccc(NC(=O)c2cc3sccc3n2C)c1CCOc1ccc(OC2CCNCC2)cc1
[10]
  IC50: 0.075 µM

## C=c1[nH]c2ccc(Br)cc2/c1=C/c1cc2c([nH]1)CN(CCN(CC)CC)C2=O
[9]
  IC50: 24.9 µM

## Cc1cc(C)c(CNC(=O)c2c(C)cn(Cc3ccc(CC(F)(F)F)cc3)c2C)c(=O)[nH]1
[11]
  IC50: 72.8 µM
[12]
  IC50: 58.7 µM
[13]
  IC50: 270 µM

## Cc1ccc(NC(=S)NNC(=O)c2cc3c([nH]c4ccccc43)c(-c3cccc(O)c3)n2)cc1
[14]
  IC50: 2.57 µM
[15]
  IC50: 18.8 µM
[16]
  IC50: 28.1 µM
[17]
  IC50: 6.57 µM
[18]
  IC50: 16 µM

## CNC(=O)c1ccc(-c2ccc3ncc(S(=O)(=O)n4ccc5ccccc54)n3c2)cc1F
[19]
  IC50: 0.0099 µM
[20]
  IC50: 0.0128 µM

## S=C(N/N=C/c1ccc[nH]1)Nc1ccccc1
[8]
  IC50: 94.23 µM

## CC(C)NCc1ccc(-c2[nH]c3cccc4c3c2C=NNC4=O)cc1
[21]
  IC50: 0.00884 µM
[22]
  IC50: 0.014 µM
[23]
  CC50: 22.3 µM
[24]
  CC50: 0.98 µM

## CC(=O)n1cc(C(=O)OC(C)C)c(C#Cc2ccc(Cl)cc2)c1C(=O)OC(C)C
[25]
  IC50: 2.29 µM
[26]
  IC50: 3.49 µM

## CCN1CCC(Oc2ccc(OCCc3ccccc3NC(=O)c3cc4sccc4n3C)cc2)CC1
[10]
  IC50: 0.451 µM

## CCOCc1cccc(NC(=O)c2cc3sccc3n2C)c1CCOc1ccc(OC[C@@H]2CCNC2)cc1
[10]
  IC50: 0.0078 µM

## C=Cc1ccccc1-c1ccn(C)c1C#N
[27]
  IC50: 0.97 µM

## O=C(NCc1ccccc1)C(CNC(=O)C1C(C(=O)O)[C@@H]2CC[C@H]1O2)Cc1ccc[nH]1 (some centres not stated)
[28]
  IC50: 0.017 µM
[29]
  IC50: 0.017 µM
[30]
  IC50: 0.017 µM
[31]
  IC50: 0.017 µM
[32]
  IC50: 0.017 µM

## CNC(=O)c1ccccc1Sc1ccc2c(/N=N/c3cc(C)[nH]c3C)n[nH]c2c1
[3]
  IC50: 44 µM

## Cc1c(C(=O)C(=O)Nc2ccncc2)cc(-c2ccccc2)n1-c1ccccc1
[5]
  IC50 at 24 h: > 100 µM
[33]
  IC50: 11.8 µM

## CNC(=S)N/N=C/c1ccc[nH]1
[8]
  IC50: 344.83 µM

## Cc1cc(NS(=O)(=O)c2ccc(N3C(=O)/C(=C/c4c[nH]c5ccccc45)N=C3c3ccccc3)cc2)no1
[9]
  IC50: 0.07 µM

## CSc1nnc(-c2cc3c([nH]c4ccccc43)c(-c3cccc(O)c3)n2)o1
[14]
  IC50: 4.57 µM
[17]
  IC50: 6.41 µM
[18]
  IC50: 38.2 µM

## Cc1c(C(=O)Nc2ccc(Oc3ncnc4[nH]ccc34)c(F)c2)nnn1-c1ccc(F)cc1
[34]
  IC50: 4.79 µM
[35]
  IC50: 0.79 µM
[36]
  IC50: 2.03 µM
[37]
  IC50: 2.9 µM

## O=C(N/N=C/c1ccc(O)cc1)c1cc2ccccc2[nH]1
[8]
  IC50: 0.07 µM
[38]
  IC50: 175 µM

## O=C(NNC(=S)Nc1ccc(Br)cc1)c1cc2c([nH]c3ccccc32)c(-c2cccc(O)c2)n1
[14]
  IC50: 3.63 µM
[17]
  IC50: 3.59 µM
[18]
  IC50: 30.2 µM

## Cc1cc(C)c(CNC(=O)c2c(C)n(Cc3ccccc3)c3ccc(OCCN4CCCCC4)cc23)c(=O)[nH]1
[39]
  IC50: 52.6 µM

## CCNC(=S)NNC(=O)c1cc2c([nH]c3ccccc32)c(-c2cccc(O)c2)n1
[14]
  IC50: 4.56 µM
[15]
  IC50: 32.3 µM
[16]
  IC50: 28.3 µM
[17]
  IC50: 7.2 µM
[18]
  IC50: 28.4 µM

## NC(=S)N/N=C/c1ccc[nH]1
[8]
  IC50: 3.99 µM

## Cc1cc(NS(=O)(=O)c2ccc(N3C(=O)/C(=C/c4c[nH]c5ccccc45)N=C3c3ccc(Cl)cc3)cc2)no1
[9]
  IC50: 1.61 µM
